According to patent US20130149287A1, “Corticogenesis of Human Pluripotent Cells” (Cambridge Enterprise Limited, priority 2010, published 2013):
“Also recorded” adds a separate entry of the source.

Legend:
Type in all cases: cell-based, human
[1] = system: voltage-gated potassium channels; assay: Whole-cell patch-clamp recording of voltage-gated potassium currents in PSC-derived cortical neurons; details: step depolarizations from holding potential -80 mV to +40
AMPA receptor = assay: Whole cell patch-clamp recording of miniature excitatory post-synaptic currents (mEPSCs) in hESC/hiPSC-derived cortical neurons; details: hESC- and hiPSC-derived cortical neurons, cultures between days 45 and 100
From the text: […] Borosilicate glass electrodes (resistance 6-10 MΩ) were filled with an intracellular solution containing (in mM): 135 K-Gluconate, 7 NaCl, 10 Hepes, 2 Na2ATP, 0.3 Na2GTP, 2 MgCl2. Cells were viewed using a BW50WI microscope (Olympus) with infrared DIC optics. Recordings were made with a Multiclamp 700 A amplifier (Molecular Devices). Signals were filtered at 4 kHz, sampled at 20 kHz with 16-bit resolution, and analysed using Matlab (MathWorks).

gamma-secretase complex = assay: Sandwich ELISA of secreted Aβ40 and Aβ42 in DS cortical neuron culture supernatant under gamma-secretase inhibition; details: DS cortical neurons
Method: Quantification of secreted Aβ40 and Aβ42 was carried out by sandwich ELISA (Invitrogen) of 50 μl of cell culture supernatant from cultures of DS, iPS control and H9 hES cortical neurons. For quantification of water-soluble and insoluble Aβ peptides, water- and formic acid-soluble protein fractions from whole cell extracts of cortical cultures were prepared and levels of each peptide measured by ELISA (Invitrogen). Inhibition of gamma-secretase was carried out in DS cortical cultures by addition of DAPT (Calbiochem) every 48 hours from day 50 of differentiation onwards.

[2] = system: voltage-gated sodium channels
[3] = system: hESC and hiPSC cell lines; assay: Efficiency of cortical induction by percentage of Pax6-expressing cells, with or without retinoids; details: retinol acetate and all-trans retinol included together, with dual SMAD inhibition; two hESC and four iPSC lines
Method: hESCs or iPSCs were isolated from MEFs following dissociation to single cells with Accutase (Innovative Cell Technologies) by a 1 hr pre-plate on gelatin-coated dishes in hESC medium supplemented with 10 ng/ml FGF2 and 10 μM ROCK inhibitor (Calbiochem). The non-adherent pluripotent stem cells were harvested and plated on Matrigel (BD) coated 12-well plates in MEF-conditioned hESC medium with 10 ng/ml FGF2. Once the cell culture reached 95% confluence, neural induction was initiated by changing the culture medium to a culture medium that supports neural induction, neurogenesis and neuronal differentiation (referred to as 3N medium), a 1:1 mixture of N2- and B27-containing media. N2 medium: DMEM/F12, N2 (GIBCO), 5 μg/ml Insulin, 1 mM L-Glutamine, 100 μm non-essential amino acids, 100 μM 2-mercaptoethanol, 50 U/ml Penicillin and […] Streptomycin; B27 medium: Neurobasal (Invitrogen), B27 with vitamin A (GIBCO), 200 mM Glutamine, 50 U/ml Penicillin and […] Streptomycin. […] Cells were maintained in this medium for 8-11 days, during which time the efficiency of neural induction was monitored by the appearance of cells with characteristic neuroepithelial cell morphology. […] For quantifying numbers of cells expressing specific cortical neuronal markers, cell cultures were dissociated into single cells with Accutase and resuspended at a density of 100,000 cells/ml. […]

cortical rosettes = assay: Regional identity of early-stage cortical rosettes after hedgehog signalling agonist treatment

Compound: Nc1ccncc1 [4-AP, 4-aminopyridine]
- voltage-gated outward potassium current [1]: blocks a fast-activating transient fraction of outward K current; also recorded: a transient component of which was blocked

Compound: N#Cc1cc2[nH]c(=O)c(=O)[nH]c2cc1[N+](=O)[O-] [CNQX]
- appearance of mEPSCs (AMPA receptor): blocked the appearance of mEPSCs

Compound: C[C@H](NC(=O)Cc1cc(F)cc(F)c1)C(=O)N[C@H](C(=O)OC(C)(C)C)c1ccccc1 [DAPT]
- production/secretion of both Aβ peptides (gamma-secretase complex; longer term 21 day gamma-secretase inhibition): undetectable levels
- production of Aβ40 and Aβ42 (secreted) (gamma-secretase complex; short-term 4 day gamma-secretase inhibition): reduces production of both Aβ40 and Aβ42

Compound: NC1=N[C@H](O)[C@H]2[C@H]3O[C@]4(O)O[C@@H]([C@@H](O)[C@@]2(N1)[C@@H]4O)[C@]3(O)CO [TTX, tetrodotoxin]
- fast-activating and inactivating inward voltage-gated sodium currents [2]: completely blocked

Compound: CC1=C(/C=C/C(C)=C/C=C/C(C)=C/CO)C(C)(C)CCC1 [all-trans retinol]
- cortical neural induction, Pax6 expression [3]: robust, efficient differentiation of all lines to cortical neural stem/progenitor cells, with almost all cells expressing Pax6

Compound: c1ccc2c(Oc3nc(Nc4ccc(N5CCOCC5)cc4)c4ncn(C5CCCCC5)c4n3)cccc2c1 [purapomorphine]
- effect on regional identity of cortical rosettes (cortical rosettes): ventralises the rosettes, resulting in the genesis of GAD67+ GABAergic interneurons

Compound: retinol acetate
- cortical neural induction, Pax6 expression [3]: robust, efficient differentiation of all lines to cortical neural stem/progenitor cells, with almost all cells expressing Pax6
